Legend:
[1] = tested on: OVA-induced allergic conjunctivitis; test: Mouse model of OVA-induced allergic conjunctivitis; format: in vivo, BALB/c mice; conditions: 7-mer 100 μM eye drop twice a day for 4 days, FIG. 5C
Method: BALB/c mice (4- to 5-weeks old females) were sensitized intraperitoneally with 1 μg of ovalbumin (OVA) and 200 μl of 1.5% aluminum hydroxide (ALUM) on days 0 and 7, respectively; and then challenged two times topically in the conjunctival sac with 250 μg of OVA respectively on days 15 and 18. Control mice were given OVA with ALUM in sensitization stages, and PBS in place of OVA in challenge stages. For treatment, 7-mer was mixed with 1% CMC eye drop to a concentration 100 μM. After the OVA challenge (day 15), the mice were randomly assigned to two experimental groups (n=6 per group) and the eye was treated with 20 μl of 7-mer or vehicle eye drop twice a day for 4 days (to day 18). Twenty-four hrs after the final challenge with OVA (day 19), mice were euthanized and their eyes were harvested, fixed overnight in 4% paraformaldehyde and embedded in paraffin. To evaluate the eosinophilic infiltration, sections (5 μm) including eyelids were de-paraffinized and stained with acid-giemsa for detection of eosinophils.
Allergic conjunctivitis (AC) is characterized by conjunctival eosinophilic infiltration. […]

[2] = tested on: IMQ-induced psoriasis-like skin inflammation; test: Mouse model of IMQ-induced psoriasis-like skin inflammation; format: in vivo, BALB/c mice
Method: All experimental procedures were approved by the Mackay Memorial Hospital Animal Care and Uses Committee and conducted according to national animal welfare regulations. Psoriasis-like skin inflammation was created by treating mouse skin with Imiquimod (IMQ) in accordance with the procedures described by van der Fits et al (J Immunol. (2009), 182, 5836-5845). Accordingly, each BALB/c mice (8 weeks old) received a daily topical dose of 62.5 mg of commercially available IMQ cream (5%) on the shaved back and the right ear for 6 consecutive days; whereas the control mice (normal group) were treated with a control cream. For treatment, 7-mer analogue was mixed with IMQ cream to a concentration 100 μM.
Keratinocyte proliferation was determined by 5-bromo-2′-deoxyuridine (BrdU) incorporation. BrdU (Sigma-Aldrich) was reconstituted in DMSO as a stock solution of 80 mM. 10 μl of BrdU mixed with 90 μl of PBS was intraperitoneally injected into each mouse for 24 hr prior to euthanasia. Back skin was fixed overnight in 4% paraformaldehyde and embedded in paraffin for immunohistochemistry.
In this example, the efficacy of the present synthetic peptides of Example 1 on IMQ-induced psoriasis-like skin inflammation was investigated. To this purpose, animals (8-week-old mice) were given a daily topical dose of IMQ cream on the shaved back for six consecutive days, so as to induce psoriasis-like skin inflammation and desquamation (FIG. 1; left panel).
Psoriasis is a disease resulted from abnormal keratinocyte proliferation, thus the effects of the present synthetic peptides on the proliferation of keratinocytes were also monitored in accordance with procedures described in the section of “Materials and Methods”. Results are illustrated in FIG. 2.

SMILES: CC(=O)N[C@@H](CC(=O)O)C(=O)N[C@@H](CC(C)C)C(=O)N[C@@H](Cc1ccc(O)cc1)C(=O)N[C@@H](CCCNC(=N)N)C(=O)N[C@H](C(=O)N[C@@H](CCCNC(=N)N)C(=O)N[C@@H](CO)C(N)=O)C(C)C [7-mer, NH2-Asp-Leu-Tyr-Arg-Val-Arg-Ser-COOH]
- infiltration of eosinophils in the conjunctiva [1]: decreased significantly
- number of BrdU-positive keratinocytes ([2]; 7-mer topically or via intraperitoneal injection, FIG. 2): significantly reduced
- level of skin inflammation and desquamation ([2]; topical cream containing IMQ and 7-mer peptide 100 μM, six consecutive days, FIG. 1): reduced significantly

From patent publication US10463710B2, “Short synthetic peptide for the treatment and/or prophylaxis of autoimmune and inflammatory disorders” (MacKay Memorial Hospital, priority 2015, dated 2019)
